Test results from patent publication US6956040B2, “Oxazolidinone piperazinyl derivatives as potential antimicrobials” (Ranbaxy Laboratories Limited, priority 2001, dated 2005).
In brackets after ≈: the same amount, converted by molar mass.

Tests used:
MRSA 15187 = assay: MIC, agar incorporation method; type: cell-based, Staphylococcus aureus; settings: MRSA 15187; agar incorporation
Description: (§1) The compounds of the invention display antibacterial activity when tested by the agar incorporation method. The following minimum inhibitory concentrations (μg/ml) were obtained for representative compounds of the invention which are given below in the following tables.
(§2) • 1) S.aureus ATCC 25923—Staphylococus aureus ATCC 25923 • 2) MRSA 15187—Methicillin Resistant Staphylococcus aureus • 3) Ent. faecalis ATCC 29212—Enterococcus faecalis ATCC 29212 • 4) Ent. faecium 6A—Enterococcus faecium 6A Van®, Cipro® • 5) Strep. pne. ATCC 6303—Streptococcus pneumoniae ATCC 6303 • 6) Strep. pyog. ATCC 19615—Streptococcus pyogenes • 7) S. epidermidis—Staphylococcus epidermidis ATCC 12228
(§3) Briefly, the compounds were dissolved in DMSO and doubling dilution of the compounds were incorporated into Meuller Hilton agar before solidification. Inoculum was prepared by suspending 4 to 5 colonies into 5 ml of normal saline solution and adjusting the turbidity to 0.5 Macfarland turbidity standard tables (1.5×10^8 CFU/ml), after appropriate dilutions, 10^4 CFU/spot was transfered into the surface of dried plate and incubated for 18 hours (24 hours for MRSN studies). The concentration showing no growth of the inoculated culture was recorded as the MIC. Appropriate ATCC standard strains were simultaneously tested and result recorded only when the MIC's against standard antibiotics were within the acceptable range.

S. aureus 25923 = assay: MIC, agar incorporation method; type: cell-based, Staphylococcus aureus; settings: S. aureus 25923; agar incorporation
Description: as §1, §2, §3

MRSA 33 = assay: MIC, agar incorporation method; type: cell-based, Staphylococcus aureus; settings: MRSA 33; agar incorporation
Protocol: as §1, §3

MRSA 562 = assay: MIC, agar incorporation method; type: cell-based, Staphylococcus aureus; settings: MRSA 562; agar incorporation; Table 1
Protocol: as §1, §3

E. faecalis 29212 = assay: MIC, agar incorporation method; type: cell-based, Enterococcus faecalis; settings: E. faecalis 29212; agar incorporation
Description: as §1, §2, §3

VRE 6A = assay: MIC, agar incorporation method; type: cell-based, Enterococcus faecium; settings: VRE 6A; agar incorporation
Description: as §1, §2, §3

S. pyogenes 19615 = assay: MIC, agar incorporation method; type: cell-based, Streptococcus pyogenes; settings: S. pyogenes 19615; agar incorporation
Description: as §1, §2, §3

S. pneum 6303 = assay: MIC, agar incorporation method; type: cell-based, Streptococcus pneumoniae; settings: S. pneum 6303; agar incorporation
Description: as §1, §2, §3

S. pneum AB 34 = assay: MIC, agar incorporation method; type: cell-based, Streptococcus pneumoniae; settings: S. pneum AB 34; agar incorporation
Protocol: as §1, §3

G+ve = assay: Summary of in vitro activity (MIC) against G+ve bacteria; type: cell-based; settings: for MIC50 / MIC90: G+ve, Number 49; for Geometric Mean of in vitro activity (MIC): Gram +ve
Protocol: as §1, §3

S. aureus = assay: Summary of in vitro activity (MIC) against S. aureus; type: cell-based, Staphylococcus aureus; settings: S. aureus
Protocol: as §1, §3

E. faecalis = assay: Summary of in vitro activity (MIC) against E. faecalis; type: cell-based, Enterococcus faecalis; settings: E. faecalis
Protocol: as §1, §3

S. pneumoniae = assay: Summary of in vitro activity (MIC) against S. pneumoniae; type: cell-based, Streptococcus pneumoniae; settings: S. pneumoniae; for MIC50 / MIC90: Number 19
Protocol: as §1, §3

SMILES | MIC (MRSA 15187) | MIC (S. aureus 25923) | MIC (MRSA 33) | MIC (MRSA 562) | MIC (E. faecalis 29212) | MIC (VRE 6A) | MIC (S. pyogenes 19615) | MIC (S. pneum 6303) | MIC (S. pneum AB 34) | other results
CC(=O)NC[C@H]1CN(c2ccc(N3CCN(Cc4cccn4C)CC3)c(F)c2)C(=O)O1 [Compound No. 22, (S)-N[[3-[3-Fluoro-4-[N-1[4-{2-pyrrole(1-methyl)methyl}]-piperazinyl]phenyl]2-oxo-5-oxazolidinyl]methyl]acetamide] | 8 µg/mL (≈ 18.6 µM) | 2 µg/mL (≈ 4.66 µM) | 8 µg/mL (≈ 18.6 µM) | 4 µg/mL (≈ 9.31 µM) | 8 µg/mL (≈ 18.6 µM) | 8 µg/mL (≈ 18.6 µM) | 1 µg/mL (≈ 2.33 µM) | 1 µg/mL (≈ 2.33 µM) | 1 µg/mL (≈ 2.33 µM) | –
CC(=O)NC[C@H]1CN(c2ccc(N3C[C@@H]4[C@H](C3)[C@H]4N(C)Cc3ccc([N+](=O)[O-])s3)c(F)c2)C(=O)O1 [Compound No. 34, (S)-N-[[3-[3-Fluoro[4-[3-(1α,5α,6α)-6-[N-(5-nitro-2-thienyl-methyl)-N-methyl]amino]-3-azabicyclo-[3.1.0]hexane]phenyl]-2-oxo-5-oxazolidinyl]methyl]acetamide] | 1 µg/mL (≈ 1.99 µM) | 1 µg/mL (≈ 1.99 µM) | 1 µg/mL (≈ 1.99 µM) | 1 µg/mL (≈ 1.99 µM) | 1 µg/mL (≈ 1.99 µM) | 1 µg/mL (≈ 1.99 µM) | 2 µg/mL (≈ 3.97 µM) | 4 µg/mL (≈ 7.94 µM) | 4 µg/mL (≈ 7.94 µM) | –
CC(=O)NC[C@H]1CN(c2ccc(N3C[C@@H]4[C@@H](CN(C)C(=O)Cc5cccs5)[C@@H]4C3)c(F)c2)C(=O)O1 [Compound No. 38, (S)-N-[[3-[3-Fluoro[4-[3-(1α,5α,6α)-6-[N-(2-thiopheneacetyl)-N-methyl]aminomethyl]-3-azabicyclo-[3.1.0]hexane]phenyl]-2-oxo-5-oxazolidinyl]methyl]acetamide] | 4 µg/mL (≈ 7.99 µM) | 4 µg/mL (≈ 7.99 µM) | 4 µg/mL (≈ 7.99 µM) | 4 µg/mL (≈ 7.99 µM) | 4 µg/mL (≈ 7.99 µM) | 4 µg/mL (≈ 7.99 µM) | 1 µg/mL (≈ 2 µM) | 1 µg/mL (≈ 2 µM) | 1 µg/mL (≈ 2 µM) | –
CC(=O)NC[C@H]1CN(c2ccc(N3C[C@@H]4[C@@H](CN(C)Cc5ccc([N+](=O)[O-])s5)[C@@H]4C3)c(F)c2)C(=O)O1 [Compound No. 39, (S)-N-[[3-[3-Fluorol[4-[3-(1α,5α,6α)-6-[N-(5-nitro-2-thienyl-methyl)-N-methyl]aminomethyl]-3-azabicyclo-[3.1.0]hexane]phenyl]-2-oxo-5-oxazolidinyl]methyl]acetamide] | 8 µg/mL (≈ 15.5 µM) | 8 µg/mL (≈ 15.5 µM) | 4 µg/mL (≈ 7.73 µM) | 8 µg/mL (≈ 15.5 µM) | 2 µg/mL (≈ 3.86 µM) | 8 µg/mL (≈ 15.5 µM) | 0.5 µg/mL (≈ 0.966 µM) | 0.5 µg/mL (≈ 0.966 µM) | 0.5 µg/mL (≈ 0.966 µM) | –
CC(=O)NC[C@H]1CN(c2ccc(N3CC4C(CN(C)Cc5ccc([N+](=O)[O-])o5)C4C3)c(F)c2)C(=O)O1 (stereo partly drawn) [Compound No. 40, (S)-N-[[3-[3-Fluoro[4-[3-(1α,5α,6α)-6-[N-(5-nitro-2-furylmethyl)-N-methyl]aminomethyl]-3-azabicyclo-[3.1.0]hexane]phenyl]-2-oxo-5-oxazolidinyl]methyl]acetamide] | 2 µg/mL (≈ 3.99 µM) | 2 µg/mL (≈ 3.99 µM) | 2 µg/mL (≈ 3.99 µM) | 1 µg/mL (≈ 1.99 µM) | 2 µg/mL (≈ 3.99 µM) | 4 µg/mL (≈ 7.98 µM) | 0.125 µg/mL (≈ 0.249 µM) | – | 2 µg/mL (≈ 3.99 µM) | MIC50 (G+ve): 1 µg/mL (≈ 1.99 µM); MIC90 (G+ve): 2 µg/mL (≈ 3.99 µM); Geometric Mean of in vitro activity (MIC) (G+ve): 0.93 µg/mL; Geometric Mean of in vitro activity (MIC) (S. aureus): 1.83 µg/mL; MIC50 (S. aureus; Number 8): 2 µg/mL (≈ 3.99 µM); MIC90 (S. aureus; Number 8): 4 µg/mL (≈ 7.98 µM); Geometric Mean of in vitro activity (MIC) (E. faecalis): 2.38 µg/mL; MIC50 (E. faecalis; Number 7): 2 µg/mL (≈ 3.99 µM); MIC90 (E. faecalis; Number 7): 4 µg/mL (≈ 7.98 µM); Geometric Mean of in vitro activity (MIC) (S. pneumoniae): 0.71 µg/mL; MIC50 (S. pneumoniae): 1 µg/mL (≈ 1.99 µM); MIC90 (S. pneumoniae): 1 µg/mL (≈ 1.99 µM)
CC(=O)NC[C@H]1CN(c2ccc(N3CCN(Cc4ccc(C5OCCCO5)o4)CC3)c(F)c2)C(=O)O1 [Compound No. 66] | 2 µg/mL (≈ 3.98 µM) | 2 µg/mL (≈ 3.98 µM) | 2 µg/mL (≈ 3.98 µM) | 2 µg/mL (≈ 3.98 µM) | 16 µg/mL (≈ 31.8 µM) | 16 µg/mL (≈ 31.8 µM) | 8 µg/mL (≈ 15.9 µM) | 8 µg/mL (≈ 15.9 µM) | 8 µg/mL (≈ 15.9 µM) | –
CC1(C)S[C@@H]2[C@H](NC(=O)Cc3ccccc3)C(=O)N2[C@H]1C(=O)O [Penicillin G, reference compound] | – | – | – | – | – | – | – | – | – | MIC50 (G+ve): 4 µg/mL (≈ 12 µM); MIC90 (G+ve): 32 µg/mL (≈ 95.7 µM); Geometric Mean of in vitro activity (MIC) (G+ve): 0.76 µg/mL; Geometric Mean of in vitro activity (MIC) (S. pneumoniae): 2.16 µg/mL; MIC50 (S. pneumoniae): 4 µg/mL (≈ 12 µM); MIC90 (S. pneumoniae): 32 µg/mL (≈ 95.7 µM)

The next lines start with results.

MIC (MRSA 15187) | MIC (S. aureus 25923) | MIC (MRSA 33) | MIC (MRSA 562) | MIC (E. faecalis 29212) | MIC (VRE 6A) | MIC (S. pyogenes 19615) | MIC (S. pneum 6303) | MIC (S. pneum AB 34) | SMILES | other results
8 µg/mL (≈ 18.5 µM) | 8 µg/mL (≈ 18.5 µM) | 8 µg/mL (≈ 18.5 µM) | 8 µg/mL (≈ 18.5 µM) | 8 µg/mL (≈ 18.5 µM) | 8 µg/mL (≈ 18.5 µM) | 4 µg/mL (≈ 9.25 µM) | 8 µg/mL (≈ 18.5 µM) | 8 µg/mL (≈ 18.5 µM) | CC(=O)NC[C@H]1CN(c2ccc(N3CCN(Cc4cccs4)CC3)c(F)c2)C(=O)O1 [Compound No. 12, (S)-N-[[3-[3-Fluoro-4-[N-1[4-(2-thienylmethyl)]piperazinyl]-phenyl]-2-oxo-5-oxazolidinyl]methyl]acetamide] | –
2 µg/mL (≈ 3.91 µM) | 4 µg/mL (≈ 7.82 µM) | 2 µg/mL (≈ 3.91 µM) | 2 µg/mL (≈ 3.91 µM) | 2 µg/mL (≈ 3.91 µM) | 2 µg/mL (≈ 3.91 µM) | 2 µg/mL (≈ 3.91 µM) | 4 µg/mL (≈ 7.82 µM) | 4 µg/mL (≈ 7.82 µM) | CC(=O)NC[C@H]1CN(c2ccc(N3CCN(Cc4cc(Br)cs4)CC3)c(F)c2)C(=O)O1 [Compound No. 14, (S)-N-[[3-[3-Fluoro-4-[N-1[4-{2-thienyl(4-bromo)methyl}]-piperazinyl]phenyl]-2-oxo-5-oxazolidinyl]methyl]acetamide] | –
2 µg/mL (≈ 3.91 µM) | 2 µg/mL (≈ 3.91 µM) | 2 µg/mL (≈ 3.91 µM) | 2 µg/mL (≈ 3.91 µM) | 2 µg/mL (≈ 3.91 µM) | 4 µg/mL (≈ 7.82 µM) | 1 µg/mL (≈ 1.96 µM) | 2 µg/mL (≈ 3.91 µM) | 0.5 µg/mL (≈ 0.978 µM) | CC(=O)NC[C@H]1CN(c2ccc(N3CCN(Cc4ccc(Br)s4)CC3)c(F)c2)C(=O)O1 [Compound No. 27] | –
2 µg/mL (≈ 4.36 µM) | 2 µg/mL (≈ 4.36 µM) | 2 µg/mL (≈ 4.36 µM) | 1 µg/mL (≈ 2.18 µM) | 8 µg/mL (≈ 17.4 µM) | 8 µg/mL (≈ 17.4 µM) | 8 µg/mL (≈ 17.4 µM) | 8 µg/mL (≈ 17.4 µM) | 8 µg/mL (≈ 17.4 µM) | CC(=O)NC[C@H]1CN(c2ccc(N3CCN(Cc4ccc(C=NN)o4)CC3)c(F)c2)C(=O)O1 [Compound No. 62, (S)-N-[[3-[3-Fluoro-4[N-1-[4-{2-furyl-(5-hydrazone)-methyl}]-piperazinyl]-phenyl]-2-oxo-5-oxazolidinyl]-methyl]acetamide] | –
